Reference: ChEMBL document CHEMBL1126820, “4-alkylamino-3-bromo-N-alkyl-1,8-naphthalimides: new photochemically activatable antiviral compounds” (1993)

Key:
[1] = Concentration required for Photoinactivation of enveloped viruses; format: functional
Human alphaherpesvirus 1 = test: Photoinactivation against simplex virus type 1; format: functional
[2] = tested on: Human immunodeficiency virus 1; test: Concentration required for Photoinactivation of cell-associated HIV-1; format: functional
[3] = tested on: Human immunodeficiency virus 1; test: Concentration required for Photoinactivation of cell-free HIV-1; format: functional, organism-based

| Structure (SMILES) | Activity [1] | Activity (Human alphaherpesvirus 1) | Activity [2] | Activity [3] |
| --- | --- | --- | --- | --- |
| CCCCCCCCNc1c(Br)cc2c3c(cccc13)C(=O)N(CCCCCCCC)C2=O | 0.1 µM |  |  |  |
| CCCCNc1c(Br)cc2c3c(cccc13)C(=O)N(CCCC)C2=O | 0.1 µM |  |  |  |
| CCCCCCNc1c(Br)cc2c3c(cccc13)C(=O)N(CCCCCC)C2=O | 0.1 µM |  |  |  |
| CCCCCCN1C(=O)c2cccc3c(NCCNC(=O)CCCCC(=O)NCCNc4c(Br)cc5c6c(cccc46)C(=O)N(CCCCCC)C5=O)c(Br)cc(c23)C1=O | 0.1 µM | <500 nM | 300 nM | 1 µM |
